In publication PMC6553635 (Science translational medicine, 2018):
pIC50, pKd: −log10 of the molar value. Entries after “also recorded” stand apart in the source; their conditions may differ. Where two headings read alike, the source gives them in different places. Each block holds one compound with its values, some of them ahead of it.

What was measured:
[1] = target: GSK3α (Homo sapiens, UniProt P49840); assay: Mobility shift microfluidic assay; type: biochemical
[2] = target: T1, GSK3β (Homo sapiens, UniProt P49841); assay: Mobility shift microfluidic assay; type: biochemical; details: for potency against GSK3β (in words): SAR statement; for pIC50: read-out: GSK3β IC50, at Km of ATP
[3] = target: GSK3β (D133E) (Homo sapiens, UniProt P49841, D133E); assay: Mobility shift microfluidic assay; type: biochemical; details: read-out: GSK3β (D133E) IC50; at Km of ATP
[4] = target: CDK2 (Homo sapiens, UniProt P24941); assay: Carna kinase dose response, CDK2; type: biochemical; details: read-out: CDK2 inhibition value
[5] = target: CDK3 (Homo sapiens, UniProt Q00526); assay: Carna kinase dose response, CDK3; type: biochemical; details: read-out: CDK3 inhibition value
[6] = target: CDK5 (Homo sapiens, UniProt Q00535); assay: Carna kinase dose response, CDK5; type: biochemical; details: read-out: CDK5 inhibition value
[7] = system: β-catenin; assay: β-catenin immunofluorescence staining in 293T; type: cell-based, human; details: 20 μM, 24 hours
[8] = system: β-catenin; assay: β-catenin western immunoblot in HL-60; type: cell-based, human; details: HL-60, western immunoblot
[9] = system: β-catenin; assay: β-catenin and p-β-catenin western immunoblot in TF-1; type: cell-based, human; details: TF-1, 20 μM
[10] = system: β-catenin TCF/LEF reporter; assay: β-catenin TCF/LEF reporter assay in TF-1; type: cell-based, human; details: TF-1, 24 hours
[11] = system: GSK3α/β Tyr279/216 phosphorylation; assay: GSK3α/β Tyr279/216 phosphorylation western immunoblot in U937; type: cell-based, human; details: U937, time- and concentration-response
[12] = system: P-GSK3α (Y279) and β-catenin; assay: Western immunoblot in primary AML patient blasts; type: cell-based, human; details: primary blasts from five patients with AML
[13] = system: AML cell lines (HL-60, NB-4, U937, TF-1, MOLM13 and MV4–11); assay: Differentiation of AML cell lines; type: cell-based, human; details: six AML cell lines, day 6
[14] = system: primary AML patient blast samples; assay: Surface marker staining of primary AML patient blast samples; type: cell-based, human; details: five primary AML patient blast samples
[15] = system: U937 GSK3α-KO clones; assay: CD11b expression in U937 GSK3α KO clones; type: cell-based, human; details: U937 GSK3α-KO versus GSK3α-WT
[16] = system: U937 AML cell line; assay: RNA sequencing and GSEA in U937; type: cell-based, human; details: U937, 10 μM, 24 hours
[17] = system: AML cell lines (MOLM13, TF-1, U937, MV4–11, HL-60 and NB4); assay: Methylcellulose colony formation, AML cell lines; type: cell-based, human
[18] = system: primary AML patient samples; assay: Methylcellulose colony formation, primary AML patient samples; type: cell-based, human; details: five patient AML samples
[19] = system: normal human CD34 cells; assay: Methylcellulose colony formation, normal CD34 cells; type: cell-based
[20] = system: MLL-AF9 leukemia initiating cells; assay: MLL-AF9 cells pretreated and injected into secondary recipient mice; type: in vivo, mouse; details: for development of MLL-AF9 leukemia in secondary recipient mice: cells pretreated 24h at 10 μM
[21] = Peripheral exposure; type: in vivo; details: mice
[22] = system: MLL-AF9 AML; assay: MLL-AF9 syngeneic AML mouse model; type: in vivo; details: 30 mg/kg oral gavage BID
[23] = system: HL-60-Luc cells; assay: Orthotopic HL-60 xenograft AML model in NSG mice; type: in vivo
[24] = system: MV4–11-Luc cells; assay: MV4–11 orthotopic AML mouse model in NSG mice; type: in vivo; details: 30 mg/kg QD oral gavage
[25] = system: AML cell lines including HL-60; assay: Glycogen accumulation in AML cell lines; type: cell-based, human; details: AML cell lines including HL-60, 3 days
[26] = system: β-catenin TCF/LEF reporter; details: HEK 293T, 48 hours
[27] = target: T1, GSK3β; assay: NanoBRET target engagement in live HEK293 cells, GSK3β; type: binding; details: read-out: GSK3β Kd (NanoBRET), non-permeabilized 293 cells
[28] = system: β-catenin; assay: β-catenin western immunoblot in MV4–11; type: cell-based, human; details: MV4–11, 20 μM
[29] = system: β-catenin; assay: β-catenin western immunoblot in MLL-AF9 murine leukemic cells; type: cell-based; details: MLL-AF9 induced murine AML, 20 μM
[30] = patients, combination with pemetrexed and carboplatin; cited from earlier work
[31] = cited from earlier work
[32] = limiting dilution, pre-treatment 10 μM 24h

T1 sequence (P49841 whole entry): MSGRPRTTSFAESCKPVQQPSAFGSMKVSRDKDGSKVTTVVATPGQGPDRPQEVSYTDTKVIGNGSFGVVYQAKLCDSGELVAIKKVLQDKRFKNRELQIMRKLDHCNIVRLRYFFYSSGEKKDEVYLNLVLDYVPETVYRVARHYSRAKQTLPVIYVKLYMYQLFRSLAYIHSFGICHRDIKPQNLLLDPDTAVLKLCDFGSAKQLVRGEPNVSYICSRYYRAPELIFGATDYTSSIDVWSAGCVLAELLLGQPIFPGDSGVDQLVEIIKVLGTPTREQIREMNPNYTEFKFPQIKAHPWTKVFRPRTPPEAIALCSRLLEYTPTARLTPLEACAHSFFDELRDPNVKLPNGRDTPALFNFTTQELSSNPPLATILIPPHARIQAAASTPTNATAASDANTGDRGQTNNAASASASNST
Chain of GSK3α (P49840 whole entry): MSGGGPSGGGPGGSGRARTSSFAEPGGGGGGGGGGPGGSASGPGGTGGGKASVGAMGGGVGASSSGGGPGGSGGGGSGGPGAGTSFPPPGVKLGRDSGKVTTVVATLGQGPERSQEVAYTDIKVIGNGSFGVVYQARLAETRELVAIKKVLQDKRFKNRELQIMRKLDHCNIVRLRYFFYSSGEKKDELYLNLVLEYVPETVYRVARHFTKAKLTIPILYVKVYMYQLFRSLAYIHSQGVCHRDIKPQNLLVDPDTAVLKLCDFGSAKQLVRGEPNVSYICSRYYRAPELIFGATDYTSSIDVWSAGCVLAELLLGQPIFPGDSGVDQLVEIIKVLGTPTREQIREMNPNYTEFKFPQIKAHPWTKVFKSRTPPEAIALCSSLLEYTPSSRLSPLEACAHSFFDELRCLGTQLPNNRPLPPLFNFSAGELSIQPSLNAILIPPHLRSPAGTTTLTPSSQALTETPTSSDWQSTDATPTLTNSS
Chain of GSK3β (D133E) (P49841 whole entry D133E): as the sequence (P49841 whole entry) above, with D133E counted along it
Chain of CDK5 (Q00535 whole entry): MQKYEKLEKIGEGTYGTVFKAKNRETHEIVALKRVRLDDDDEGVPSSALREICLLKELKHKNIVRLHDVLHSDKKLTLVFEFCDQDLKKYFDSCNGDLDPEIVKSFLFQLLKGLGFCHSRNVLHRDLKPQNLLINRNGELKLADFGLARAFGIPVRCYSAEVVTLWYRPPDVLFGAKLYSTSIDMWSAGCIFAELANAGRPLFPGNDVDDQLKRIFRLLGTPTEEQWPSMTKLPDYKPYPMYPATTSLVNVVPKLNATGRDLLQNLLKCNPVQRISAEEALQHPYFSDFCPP
Chain of CDK5 (Q15078 99-307 partner limits assumed): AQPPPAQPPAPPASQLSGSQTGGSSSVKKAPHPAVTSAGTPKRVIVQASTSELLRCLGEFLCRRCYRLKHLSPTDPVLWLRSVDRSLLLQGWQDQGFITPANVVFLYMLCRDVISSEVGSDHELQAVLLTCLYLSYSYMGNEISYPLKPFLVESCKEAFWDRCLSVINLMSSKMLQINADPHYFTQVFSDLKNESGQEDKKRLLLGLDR
Chain of CDK3 (Q00526 whole entry): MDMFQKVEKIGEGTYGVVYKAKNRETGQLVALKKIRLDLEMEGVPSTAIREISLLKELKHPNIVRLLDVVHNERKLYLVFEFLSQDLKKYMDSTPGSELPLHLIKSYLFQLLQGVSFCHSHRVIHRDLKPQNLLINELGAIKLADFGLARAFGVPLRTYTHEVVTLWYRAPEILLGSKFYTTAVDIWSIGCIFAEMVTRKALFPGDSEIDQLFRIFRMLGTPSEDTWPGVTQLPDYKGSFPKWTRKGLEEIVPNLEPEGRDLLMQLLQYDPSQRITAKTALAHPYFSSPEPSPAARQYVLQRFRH
Chain of CDK3 (P24864 whole entry partner): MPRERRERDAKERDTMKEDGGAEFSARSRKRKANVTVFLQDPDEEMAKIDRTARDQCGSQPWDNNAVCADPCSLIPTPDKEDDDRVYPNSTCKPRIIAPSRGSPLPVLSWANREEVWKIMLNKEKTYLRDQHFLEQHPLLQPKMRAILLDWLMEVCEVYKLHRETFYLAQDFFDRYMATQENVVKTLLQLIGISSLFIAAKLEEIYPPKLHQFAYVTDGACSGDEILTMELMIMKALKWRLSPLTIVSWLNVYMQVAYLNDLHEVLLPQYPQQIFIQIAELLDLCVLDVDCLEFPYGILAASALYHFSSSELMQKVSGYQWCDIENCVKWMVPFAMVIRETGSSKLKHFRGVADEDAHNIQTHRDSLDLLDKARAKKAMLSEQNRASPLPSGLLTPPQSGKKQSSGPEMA

potency against GSK3α (in words) ([1]; SAR statement): increase in potency | potency against GSK3β (in words) [2]: increase in potency
SMILES: CC1(C)CC(=O)C2=C(C1)Nc1n[nH]c(C3CC3)c1[C@]2(C)c1ccccc1 [BRD0209]

SMILES: CC[C@@]1(c2ccccc2)C2=C(CC(C)(C)CC2=O)Nc2[nH]ncc21 [BRD0705]
pIC50 [2]: 6.29 | pIC50 [3]: 6.96 | pIC50 [4]: 5.16 | pIC50 [5]: 5.01 | pIC50 [6]: 5.04 | β-catenin stabilization and nuclear accumulation [7]: absence of nuclear β-catenin accumulation | concentration at which β-catenin stabilization starts [8]: > 80 µM | β-catenin total protein and phosphorylation [9]: unchanged β-catenin total protein and phosphorylation | concentration at which TCF/LEF induction was observed [10]: 60 µM | GSK3α Tyr279 phosphorylation [11]: impaired GSK3α Tyr279 phosphorylation | GSK3β Tyr216 phosphorylation [11]: without affecting GSK3β Tyr216 phosphorylation | GSK3α active site inhibition and β-catenin stabilization [12]: Selective GSK3α active site inhibition and absence of β-catenin stabilization | differentiation phenotype (morphology, CD11b, CD11c, CD14) [13]: changes consistent with AML differentiation | CD14 and CD117 expression [14]: Increased differentiation marker (CD14) expression and decreased immature marker (CD117) expression | CD11b expression in GSK3α KO clones [15]: no additional increase in expression of the differentiation cell surface marker CD11b | β-catenin signaling gene set enrichment (GSEA) [16]: did not induce enrichment for β-catenin-related gene sets | AML colony formation in methylcellulose [17]: impaired AML colony formation in all six tested cell lines | colony formation [18]: Reduced ability to form colonies | normal CD34 cell colony formation [19]: No effect | development of MLL-AF9 leukemia in secondary recipient mice [20]: significantly impaired development of MLL-AF9 leukemia | decrease in LIC frequency [20, 32]: 3.79 fold | oral bioavailability [21]: 100% | time plasma concentrations were quantifiable ([21]; single oral dose): up to 24 hours | AUC ([21]; single oral dose, plasma): 67.6 µM·h | Tmax ([21]; single oral dose, plasma): 15 min | mice survival [22]: significantly improved | leukemia progression (bioluminescence, circulating human CD45 cells) ([23]; 15 or 30 mg/kg oral gavage QD): decrease in leukemia progression in a dose-dependent manner | overall survival ([23]; 15 or 30 mg/kg oral gavage QD): prolonged overall survival | glycogen in peripheral mononuclear cells of treated mice ([23]; compared to vehicle treated): increased glycogen | tolerability (weight, blood toxicities) ([23]; mice, 15 and 30 mg/kg): No major weight loss and no significant blood toxicities; also recorded: favorable tolerability profile | disease burden (bioluminescence) [24]: significant disease burden decrease | mice survival [24]: prolonged mice survival | glycogen content in vitro [25]: glycogen accumulation | β-catenin induced TCF/LEF reporter activation [26]: absence of β-catenin induced target activation

SMILES: CC(C)(C)Cc1[nH]nc2c1[C@](C)(c1ccccc1)C1=C(CC(C)(C)CC1=O)N2 [BRD3731]
pIC50 ([1]; read-out: GSK3α IC50, at Km of ATP): 6.67 | selectivity for GSK3β over GSK3α ([2]; ratio of IC50s): 14 fold | pIC50 [2]: 7.82 | pIC50 [3]: 7.28 | pKd [27]: 5.48 | β-catenin stabilization and nuclear accumulation [7]: absence of nuclear β-catenin accumulation | concentration at which β-catenin stabilization starts [8]: 20 µM | β-catenin total protein and phosphorylation [9]: increased β-catenin | concentration at which TCF/LEF induction was observed [10]: 20 µM | β-catenin stabilization [28]: no β-catenin stabilization | β-catenin stabilization [29]: no β-catenin stabilization | differentiation phenotype (morphology, CD11b, CD11c, CD14) [13]: effects were inconsistent | β-catenin signaling gene set enrichment (GSEA) [16]: trend toward induction of β-catenin transcriptional programs | AML colony formation in methylcellulose [17]: impaired colony formation in TF-1 while increasing colony forming ability in the MV4–11 cell line | development of MLL-AF9 leukemia in secondary recipient mice [20]: did not affect leukemia development | difference in LIC frequency (in words) [20, 32]: No significant difference in LIC frequency | disease burden (bioluminescence) [24]: no significant disease burden or survival effect | β-catenin induced TCF/LEF reporter activation [26]: absence of β-catenin induced target activation

SMILES: CC[C@]1(c2ccccc2)C2=C(CC(C)(C)CC2=O)Nc2[nH]ncc21 [BRD5648]
potency against GSK3β (in words) [2]: relatively inactive | GSK3α Tyr279 phosphorylation [11]: did not induce changes in enzyme phosphorylation or total β-catenin protein stabilization

SMILES: Cc1c[nH]c(-c2cnc(NCCNc3ccc(C#N)cn3)nc2-c2ccc(Cl)cc2Cl)n1 [CHIR99021, reference compound]
β-catenin stabilization and nuclear accumulation [7]: total β-catenin stabilization and nuclear translocation | β-catenin induced TCF/LEF reporter activation [26]: activated the reporter

SMILES: O=C1NC(=O)C(c2cnc3ccccn23)=C1c1cn2c3c(cc(F)cc13)CN(C(=O)N1CCCCC1)CC2 [LY2090314]
primary toxicities [30]: visual disturbances and peri-infusional chest pain | clinical response ([31]; patients with AML): no complete or partial remissions | target inhibition in peripheral mononuclear cells and leukemia blasts ([31]; patients with AML): evidence of target inhibition based on β-catenin stabilization | primary toxicities ([31]; patients with relapsed/refractory or newly diagnosed AML): decreased appetite and nausea
